The results in this text go back to ChEMBL document CHEMBL4342494 (ACS Med Chem Lett, 2020).

The target in test [1] is T1, D(2) dopamine receptor (Homo sapiens, UniProt P14416). The test is described as follows: Agonist activity at D2 long receptor (unknown origin) transfected in human HEK293T cells assessed as increase in cAMP accumulation incubated for 2 hrs by cAMP Glo-sensor assay. It is filed as functional, cell-based. On the technique in general: Changes in cAMP serve as a functional read-out for many G protein-coupled receptors.
T1 sequence (P14416 whole entry): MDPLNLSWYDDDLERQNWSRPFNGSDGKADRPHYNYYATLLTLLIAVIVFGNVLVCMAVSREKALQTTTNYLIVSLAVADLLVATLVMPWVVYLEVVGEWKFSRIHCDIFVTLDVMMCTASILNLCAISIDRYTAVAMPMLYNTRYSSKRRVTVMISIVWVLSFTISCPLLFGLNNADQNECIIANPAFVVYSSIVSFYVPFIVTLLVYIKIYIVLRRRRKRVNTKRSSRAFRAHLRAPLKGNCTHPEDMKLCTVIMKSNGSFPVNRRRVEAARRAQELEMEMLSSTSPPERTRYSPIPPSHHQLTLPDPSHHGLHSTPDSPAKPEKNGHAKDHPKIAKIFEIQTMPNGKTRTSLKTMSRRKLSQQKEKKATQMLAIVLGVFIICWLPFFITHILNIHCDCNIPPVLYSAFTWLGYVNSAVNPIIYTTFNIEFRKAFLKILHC

Test [2] has as its target T1, D(2) dopamine receptor.
For test [3], the target named is T2, D(1A) dopamine receptor (Homo sapiens, UniProt P21728). Description: Agonist activity at C-terminal RLuc8-fused D1R (unknown origin) transfected in human HEK293T cells co-expressing N-terminal Venus-tagged beta-arrestin2 assessed as increase in beta-arrestin2 recruitment measured after 5 mins in presence of coelenterazine H by BRET assay. It is filed as cell-based. (In general: Recruitment of arrestin is a read-out of receptor activation apart from second messengers.)
T2 sequence (P21728 whole entry, the tested form may be a part): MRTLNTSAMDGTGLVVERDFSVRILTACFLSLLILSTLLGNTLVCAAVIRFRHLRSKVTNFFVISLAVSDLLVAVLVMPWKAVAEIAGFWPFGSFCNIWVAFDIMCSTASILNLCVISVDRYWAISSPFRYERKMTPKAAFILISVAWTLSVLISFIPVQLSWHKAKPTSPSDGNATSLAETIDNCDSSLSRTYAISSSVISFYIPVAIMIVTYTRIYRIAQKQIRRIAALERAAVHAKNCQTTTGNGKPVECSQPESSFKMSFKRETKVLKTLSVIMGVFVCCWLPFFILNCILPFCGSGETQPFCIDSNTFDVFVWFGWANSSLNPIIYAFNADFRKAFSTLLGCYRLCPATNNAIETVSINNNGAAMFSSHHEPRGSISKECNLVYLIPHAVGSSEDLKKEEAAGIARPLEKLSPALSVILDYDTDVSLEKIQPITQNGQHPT

The target of test [4] is T2, D(1A) dopamine receptor. Description: Agonist activity at D1R (unknown origin) transfected in human HEK293T cells assessed as increase in cAMP accumulation incubated for 2 hrs by cAMP Glo-sensor assay. Type of test: functional, cell-based.
The target of test [5] is T2, D(1A) dopamine receptor.
Test [6] addresses T1, D(2) dopamine receptor. This is another data set of the same source.

A value given as a limit tells only on which side of the number the result lay.

Turning to `CC(=O)Oc1c(Cl)cc2c(c1OC(C)=O)-c1cccc3c1[C@@H](C2)N(C)CC3`, the EC50 on D(2) dopamine receptor [1] (read-out: EC50) was > 10000 nM; on D(2) dopamine receptor [1] (read-out: pEC50 (converted)), > 10000 nM; at D(2) dopamine receptor [2], 604 nM.

Turning to `CN1CCc2cccc3c2[C@H]1Cc1ccc2c(c1-3)OCO2`, the EC50 is > 10000 nM on D(1A) dopamine receptor [3] (read-out: EC50); > 10000 nM at D(1A) dopamine receptor [3] (read-out: pEC50 (converted)); 112 nM on D(1A) dopamine receptor [4] (read-out: EC50); > 10000 nM at D(2) dopamine receptor [1] (read-out: EC50); > 10000 nM on D(2) dopamine receptor [1] (read-out: pEC50 (converted)); 102 nM at D(2) dopamine receptor [2].

For the compound `CCc1cc2c(c(OC(C)=O)c1OC(C)=O)-c1cccc3c1[C@@H](C2)N(C)CC3`, the EC50 stood at 0.38 nM on D(1A) dopamine receptor [3] (read-out: EC50) and 1550 nM on D(1A) dopamine receptor [4] (read-out: EC50).

Consider `COc1cccc(-c2cc3c(c(OC(C)=O)c2OC(C)=O)-c2cccc4c2[C@@H](C3)N(C)CC4)c1`, for which the EC50 at D(1A) dopamine receptor [3] (read-out: EC50) was 41.4 nM; at D(1A) dopamine receptor [4] (read-out: EC50), 669 nM; at D(1A) dopamine receptor [4] (read-out: pEC50 (converted)) it was 661 nM; on D(2) dopamine receptor [1] (read-out: EC50), > 10000 nM; at D(2) dopamine receptor [1] (read-out: pEC50 (converted)), > 10000 nM.

Take `CC(=O)Oc1c(C(C)C)cc2c(c1OC(C)=O)-c1cccc3c1[C@@H](C2)N(C)CC3`: the EC50 is > 10000 nM at D(1A) dopamine receptor [3] (read-out: EC50); > 10000 nM at D(1A) dopamine receptor [3] (read-out: pEC50 (converted)); 951 nM on D(1A) dopamine receptor [4] (read-out: EC50); > 10000 nM on D(2) dopamine receptor [1] (read-out: EC50); > 10000 nM on D(2) dopamine receptor [1] (read-out: pEC50 (converted)); > 10000 nM at D(2) dopamine receptor [2].

For the compound `CN1CCc2cccc3c2[C@H]1Cc1ccc(O)c(O)c1-3`, the G-protein bias factor on D(1A) dopamine receptor [5] was determined as 41.5. Besides, the log(Tau/KA) at D(2) dopamine receptor [6] was determined as 2.16.

Regarding `CC(=O)Oc1c(Br)cc2c(c1OC(C)=O)-c1cccc3c1[C@@H](C2)N(C)CC3`, the EC50 was > 10000 nM on D(2) dopamine receptor [1] (read-out: EC50), > 10000 nM at D(2) dopamine receptor [1] (read-out: pEC50 (converted)) and 1410 nM on D(2) dopamine receptor [2].

Regarding `COCOc1ccc2c(c1OCOC)-c1cccc3c1[C@@H](C2)N(C)CC3`, the EC50 on D(1A) dopamine receptor [3] (read-out: EC50) was 8.45 nM; at D(1A) dopamine receptor [4] (read-out: EC50) it was > 10000 nM.

`CCCN1CCc2cccc3c2[C@H]1Cc1ccc(O)c(O)c1-3` gave a G-protein bias factor on D(1A) dopamine receptor [5] of 19.3. Besides, the log(Tau/KA) at D(2) dopamine receptor [6] was 0.85.
